Measured values as given in PubChem BioAssay (NCI).
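How tested: cells in 96-well plates exposed to compound for 48 hours at five concentrations. TGI: total growth inhibition.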

What was measured:
Assay in all cases: NCI anticancer screen, dose series, 48 h
UACC-62 melanoma = test system: UACC-62 melanoma
PC-3 prostate = test system: PC-3 prostate
RPMI-8226 leukemia = test system: RPMI-8226 leukemia
KM12 colon = test system: KM12 colon
MCF7 breast = test system: MCF7 breast
SK-MEL-28 melanoma = test system: SK-MEL-28 melanoma
IGROV1 ovarian = test system: IGROV1 ovarian
UACC-257 melanoma = test system: UACC-257 melanoma
HCC-2998 colon = test system: HCC-2998 colon
UO-31 renal = test system: UO-31 renal
M14 melanoma = test system: M14 melanoma
HCT-15 colon = test system: HCT-15 colon
T-47D breast = test system: T-47D breast
HT29 colon = test system: HT29 colon
SK-OV-3 ovarian = test system: SK-OV-3 ovarian
MDA-MB-435 = test system: MDA-MB-435
SNB-75 CNS = test system: SNB-75 CNS
CCRF-CEM leukemia = test system: CCRF-CEM leukemia
DU-145 prostate = test system: DU-145 prostate
U251 CNS = test system: U251 CNS
SN12C renal = test system: SN12C renal
BT-549 breast = test system: BT-549 breast
MDA-MB-231 breast = test system: MDA-MB-231 breast
HL-60(TB) leukemia = test system: HL-60(TB) leukemia
OVCAR-4 ovarian = test system: OVCAR-4 ovarian
RXF 393 renal = test system: RXF 393 renal
SNB-19 CNS = test system: SNB-19 CNS
HCT-116 colon = test system: HCT-116 colon
LOX IMVI melanoma = test system: LOX IMVI melanoma
SF-268 CNS = test system: SF-268 CNS
NCI-H460 lung = test system: NCI-H460 lung
EKVX NSCLC = test system: EKVX NSCLC
ACHN renal = test system: ACHN renal
SF-295 CNS = test system: SF-295 CNS
HS 578T breast = test system: HS 578T breast
SW-620 colon = test system: SW-620 colon
SR leukemia = test system: SR leukemia
NCI-H23 lung = test system: NCI-H23 lung
COLO 205 colon = test system: COLO 205 colon
SK-MEL-5 melanoma = test system: SK-MEL-5 melanoma
OVCAR-8 ovarian = test system: OVCAR-8 ovarian
NCI/ADR-RES ovarian = test system: NCI/ADR-RES ovarian
MOLT-4 leukemia = test system: MOLT-4 leukemia
A549 NSCLC = test system: A549 NSCLC
786-0 renal = test system: 786-0 renal
SK-MEL-2 melanoma = test system: SK-MEL-2 melanoma
CAKI-1 renal = test system: CAKI-1 renal
HOP-62 NSCLC = test system: HOP-62 NSCLC
MDA-N = test system: MDA-N
NCI-H226 lung = test system: NCI-H226 lung
K-562 leukemia = test system: K-562 leukemia
TK-10 renal = test system: TK-10 renal
OVCAR-5 ovarian = test system: OVCAR-5 ovarian
OVCAR-3 ovarian = test system: OVCAR-3 ovarian
MALME-3M melanoma = test system: MALME-3M melanoma
SF-539 CNS = test system: SF-539 CNS
NCI-H522 lung = test system: NCI-H522 lung
A498 renal = test system: A498 renal
HOP-92 NSCLC = test system: HOP-92 NSCLC

Measured: TGI

CCOC(=O)C1CN(C2CC2)CCC1=O (configuration not stated)
> 100 µM: UACC-62 melanoma | PC-3 prostate | RPMI-8226 leukemia | KM12 colon | MCF7 breast | SK-MEL-28 melanoma | IGROV1 ovarian | UACC-257 melanoma | HCC-2998 colon | UO-31 renal | M14 melanoma | HCT-15 colon | T-47D breast | HT29 colon | SK-OV-3 ovarian | MDA-MB-435 | SNB-75 CNS | CCRF-CEM leukemia | DU-145 prostate | U251 CNS | SN12C renal | BT-549 breast | MDA-MB-231 breast | HL-60(TB) leukemia | OVCAR-4 ovarian | RXF 393 renal | SNB-19 CNS | HCT-116 colon | LOX IMVI melanoma | SF-268 CNS | NCI-H460 lung | EKVX NSCLC | ACHN renal | SF-295 CNS | HS 578T breast | SW-620 colon | SR leukemia | NCI-H23 lung | COLO 205 colon | SK-MEL-5 melanoma | OVCAR-8 ovarian | NCI/ADR-RES ovarian | MOLT-4 leukemia | A549 NSCLC | 786-0 renal | SK-MEL-2 melanoma | CAKI-1 renal | HOP-62 NSCLC | MDA-N | NCI-H226 lung | K-562 leukemia | TK-10 renal | OVCAR-5 ovarian | OVCAR-3 ovarian | MALME-3M melanoma

CN(C)P(=O)(Oc1occc1C(O)Cc1ccccc1)N(C)C (configuration not stated)
> 100 µM: PC-3 prostate | RPMI-8226 leukemia | KM12 colon | MCF7 breast | SK-MEL-28 melanoma | UACC-257 melanoma | HCC-2998 colon | UO-31 renal | M14 melanoma | HCT-15 colon | T-47D breast | SK-OV-3 ovarian | MDA-MB-435 | SNB-75 CNS | CCRF-CEM leukemia | U251 CNS | SN12C renal | BT-549 breast | MDA-MB-231 breast | OVCAR-4 ovarian | RXF 393 renal | SNB-19 CNS | SF-539 CNS | HCT-116 colon | LOX IMVI melanoma | SF-268 CNS | NCI-H522 lung | NCI-H460 lung | EKVX NSCLC | ACHN renal | SF-295 CNS | SW-620 colon | NCI-H23 lung | COLO 205 colon | A498 renal | SK-MEL-5 melanoma | OVCAR-8 ovarian | NCI/ADR-RES ovarian | A549 NSCLC | 786-0 renal | SK-MEL-2 melanoma | CAKI-1 renal | HOP-62 NSCLC | MDA-N | NCI-H226 lung | TK-10 renal | OVCAR-5 ovarian | OVCAR-3 ovarian | MALME-3M melanoma

NS(=O)(=O)c1ccc(NC(NC(=O)C(C(F)(F)F)C(F)(F)F)(C(F)(F)F)C(F)(F)F)cc1
> 100 µM: UACC-62 melanoma | PC-3 prostate | RPMI-8226 leukemia | KM12 colon | MCF7 breast | SK-MEL-28 melanoma | IGROV1 ovarian | UACC-257 melanoma | HCC-2998 colon | UO-31 renal | M14 melanoma | HCT-15 colon | T-47D breast | HT29 colon | SK-OV-3 ovarian | MDA-MB-435 | SNB-75 CNS | CCRF-CEM leukemia | DU-145 prostate | U251 CNS | SN12C renal | BT-549 breast | MDA-MB-231 breast | HL-60(TB) leukemia | OVCAR-4 ovarian | RXF 393 renal | SNB-19 CNS | SF-539 CNS | HCT-116 colon | LOX IMVI melanoma | SF-268 CNS | NCI-H522 lung | HOP-92 NSCLC | NCI-H460 lung | EKVX NSCLC | ACHN renal | SF-295 CNS | HS 578T breast | SW-620 colon | SR leukemia | NCI-H23 lung | COLO 205 colon | SK-MEL-5 melanoma | OVCAR-8 ovarian | NCI/ADR-RES ovarian | MOLT-4 leukemia | A549 NSCLC | 786-0 renal | SK-MEL-2 melanoma | CAKI-1 renal | HOP-62 NSCLC | MDA-N | NCI-H226 lung | K-562 leukemia | TK-10 renal | OVCAR-5 ovarian | OVCAR-3 ovarian | MALME-3M melanoma
